ChEMBL document CHEMBL1201862, “PubChem BioAssay data set” (2004)
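Each compound was tested at five concentrations against cells in 96-well plates for 48 hours. The concentration for 50% growth inhibition is given as GI50.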 Calls of active or inactive are those of the source. Rule as the data show it: active = GI50 up to about 1.1 µM and inactive = higher.

Experiments:
Assay in all cases: DTP human tumour cell line panel, 48 h
RXF 393 = tested on: RXF 393
XF498 = tested on: XF498
MOLT-4 = tested on: MOLT-4
M14 = tested on: M14
HOP-92 = tested on: HOP-92
LXFL 529 = tested on: LXFL 529
LOX IMVI = tested on: LOX IMVI
OVCAR-4 = tested on: OVCAR-4
COLO 205 = tested on: COLO 205
SNB-19 = tested on: SNB-19
IGROV-1 = tested on: IGROV-1
HCT-15 = tested on: HCT-15
CCRF-CEM = tested on: CCRF-CEM
A498 = tested on: A498
HL-60 = tested on: HL-60
KM-20L2 = tested on: KM-20L2
SK-MEL-28 = tested on: SK-MEL-28
SN12C = tested on: SN12C
UACC-62 = tested on: UACC-62
DMS-114 = tested on: DMS-114
DMS-273 = tested on: DMS-273
HOP-18 = tested on: HOP-18
RXF 631 = tested on: RXF 631
ACHN = tested on: ACHN
K562 = tested on: K562
SK-OV-3 = tested on: SK-OV-3
M19-MEL = tested on: M19-MEL
NCI-H23 = tested on: NCI-H23
U-251 = tested on: U-251
RPMI-8226 = tested on: RPMI-8226
NCI-H460 = tested on: NCI-H460
SF-539 = tested on: SF-539
SNB-78 = tested on: SNB-78
786-0 = tested on: 786-0
OVCAR-3 = tested on: OVCAR-3
DLD-1 = tested on: DLD-1
SK-MEL-2 = tested on: SK-MEL-2
HCT-116 = tested on: HCT-116
UO-31 = tested on: UO-31
TK-10 = tested on: TK-10
OVCAR-8 = tested on: OVCAR-8
SK-MEL-5 = tested on: SK-MEL-5
HT-29 = tested on: HT-29
HOP-62 = tested on: HOP-62
NCI-H226 = tested on: NCI-H226
SF-268 = tested on: SF-268
OVCAR-5 = tested on: OVCAR-5
SR = tested on: SR
UACC-257 = tested on: UACC-257
NCI-H522 = tested on: NCI-H522
SF-295 = tested on: SF-295
SNB-75 = tested on: SNB-75
HCC 2998 = tested on: HCC 2998
SW-620 = tested on: SW-620
EKVX = tested on: EKVX
KM12 = tested on: KM12
CAKI-1 = tested on: CAKI-1

For O=C(O)CCC1CCc2cccc(O)c2C1=O (stereo not drawn), the GI50 (RXF 393) was > 100000 nM (inactive), the GI50 (XF498) was > 100000 nM (inactive) and the GI50 (MOLT-4) was > 100000 nM (inactive). The GI50 (M14) was > 100000 nM (inactive), the GI50 (HOP-92) was > 100000 nM (inactive) and the GI50 (LXFL 529) was > 100000 nM (inactive). The GI50 (LOX IMVI) was > 100000 nM (inactive), the GI50 (OVCAR-4) was > 100000 nM (inactive) and the GI50 (COLO 205) was > 100000 nM (inactive). The GI50 (SNB-19) was > 100000 nM (inactive), the GI50 (IGROV-1) was > 100000 nM (inactive) and the GI50 (HCT-15) was > 100000 nM. For the same compound, the GI50 (CCRF-CEM) was > 100000 nM (inactive), the GI50 (A498) was > 100000 nM (inactive) and the GI50 (HL-60) was > 100000 nM (inactive). For the same compound, the GI50 (KM-20L2) was > 100000 nM (inactive), the GI50 (SK-MEL-28) was > 100000 nM (inactive) and the GI50 (SN12C) was > 100000 nM (inactive). The GI50 (UACC-62) was > 100000 nM (inactive), the GI50 (DMS-114) was > 100000 nM (inactive) and the GI50 (DMS-273) was > 100000 nM (inactive). For the same compound, the GI50 (HOP-18) was > 100000 nM (inactive), the GI50 (RXF 631) was > 100000 nM (inactive) and the GI50 (ACHN) was > 100000 nM (inactive). The GI50 (K562) was > 100000 nM (inactive), the GI50 (SK-OV-3) was > 100000 nM (inactive) and the GI50 (M19-MEL) was > 100000 nM (inactive). The GI50 (NCI-H23) was > 100000 nM (inactive), the GI50 (U-251) was > 100000 nM (inactive) and the GI50 (RPMI-8226) was > 100000 nM (inactive). The GI50 (NCI-H460) was > 100000 nM (inactive), the GI50 (SF-539) was > 100000 nM (inactive) and the GI50 (SNB-78) was > 100000 nM (inactive).
For COc1cc(C2c3cc4c(cc3[C@@H](N(C)c3ccc(N(C)C)cc3)C3COC(=O)C23)OCO4)cc(OC)c1O (stereo partly drawn), the GI50 (786-0) was 489 nM (active), the GI50 (OVCAR-3) was 213 nM (active) and the GI50 (DLD-1) was 443 nM (active). For the same compound, the GI50 (SK-MEL-2) was 330 nM (active), the GI50 (XF498) was 286 nM (active) and the GI50 (MOLT-4) was 434 nM (active). For the same compound, the GI50 (M14) was 305 nM (active), the GI50 (HCT-116) was 399 nM (active) and the GI50 (UO-31) was 964 nM (active). The GI50 (TK-10) was 18500 nM (inactive), the GI50 (OVCAR-8) was 365 nM (active) and the GI50 (HOP-92) was 1990 nM (inactive). For the same compound, the GI50 (LXFL 529) was 312 nM (active), the GI50 (LOX IMVI) was 437 nM (active) and the GI50 (OVCAR-4) was 9570 nM (inactive). The GI50 (SK-MEL-5) was 383 nM (active), the GI50 (COLO 205) was 479 nM (active) and the GI50 (SNB-19) was 2150 nM (inactive). For the same compound, the GI50 (IGROV-1) was 536 nM (active), the GI50 (HT-29) was 269 nM (active) and the GI50 (HCT-15) was 449 nM. The GI50 (CCRF-CEM) was 343 nM (active), the GI50 (HOP-62) was 1750 nM (inactive) and the GI50 (A498) was 26800 nM (inactive). The GI50 (NCI-H226) was 292 nM (active), the GI50 (HL-60) was 362 nM (active) and the GI50 (SF-268) was 343 nM (active). For the same compound, the GI50 (KM-20L2) was 210 nM (active), the GI50 (OVCAR-5) was 3420 nM (inactive) and the GI50 (SK-MEL-28) was 1250 nM (inactive). For the same compound, the GI50 (SR) was 427 nM (active), the GI50 (SN12C) was 590 nM (active) and the GI50 (UACC-62) was 472 nM (active). For the same compound, the GI50 (UACC-257) was 1390 nM (inactive), the GI50 (DMS-114) was 264 nM (active) and the GI50 (NCI-H522) was 58.9 nM (active). The GI50 (SF-295) was 147 nM (active), the GI50 (DMS-273) was 291 nM (active) and the GI50 (SNB-75) was 4340 nM (inactive). For the same compound, the GI50 (HCC 2998) was 785 nM (active), the GI50 (HOP-18) was 13400 nM (inactive) and the GI50 (RXF 631) was 357 nM (active). The GI50 (ACHN) was 774 nM (active), the GI50 (K562) was 329 nM (active) and the GI50 (SK-OV-3) was 402 nM (active). The GI50 (M19-MEL) was 721 nM (active), the GI50 (NCI-H23) was 291 nM (active) and the GI50 (U-251) was 219 nM (active). The GI50 (SW-620) was 184 nM (active), the GI50 (EKVX) was 15800 nM (inactive) and the GI50 (RPMI-8226) was 923 nM (active). The GI50 (KM12) was 377 nM (active), the GI50 (NCI-H460) was 352 nM (active) and the GI50 (CAKI-1) was 491 nM (active). The GI50 (SF-539) was 255 nM (active).
